Measurements published in patent publication US20250313576A1, “COMPOUND FOR PHOTOO[…] AND MEDICINAL COMPOSITION CONTAINING SAME” (The University of Tokyo, priority 2021, published 2025).

Columns and labels:
[1] = target: T1, aggregated tau overexpressed in HEK cells (Homo sapiens, UniProt P10636); assay: Intracellular photooxygenation reaction evaluated by Western blotting; assay type: cell-based; settings: for crosslinked product (more than 250 kDa) of the photooxygenation reaction: 595 nm light 15 minutes
T1 construct: expressed in transfected cells; host or cells: HEK cells (line called Fs17)
T1 sequence (P10636 2-412 isoform P10636-7): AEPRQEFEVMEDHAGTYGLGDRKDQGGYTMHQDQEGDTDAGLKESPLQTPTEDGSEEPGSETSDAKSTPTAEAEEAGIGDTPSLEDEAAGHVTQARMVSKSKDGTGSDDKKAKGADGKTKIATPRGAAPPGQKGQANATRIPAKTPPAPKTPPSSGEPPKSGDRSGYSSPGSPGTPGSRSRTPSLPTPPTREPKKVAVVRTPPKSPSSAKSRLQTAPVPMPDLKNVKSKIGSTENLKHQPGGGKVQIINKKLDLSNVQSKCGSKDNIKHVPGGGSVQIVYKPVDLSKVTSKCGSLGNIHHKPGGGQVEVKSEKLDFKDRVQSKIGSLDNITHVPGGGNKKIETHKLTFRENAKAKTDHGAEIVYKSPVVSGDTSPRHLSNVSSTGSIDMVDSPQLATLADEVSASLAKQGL
Protocol: An intracellular oxygenation reaction by the compounds PzT, OMe, Q, and J of the present invention was performed using HEK cells in which aggregated tau was overexpressed. Specifically, 10 uM of the compound of the present invention was added to a cell medium, and then irradiated with light at 595 nm for 15 minutes. After the reaction, viable cells were collected and lysed, and then the intracellular photooxygenation reaction was evaluated by measurement with Western blotting (FIG. 2). In a case where the compound of the present invention was not added, tau was detected between 75 kDa and 100 kDa by the 5A6 antibody that is a tau specific antibody, and a theoretical molecular weight of the overexpressed tau was about 70 kDa, and therefore, the tau was identified as a monomer.
Similarly, the compounds of the present invention C2OH, O, and O2 were also subjected to an intracellular oxygenation reaction. The cells overexpressing aggregated tau were incubated with a medium containing 1 μM of the compound of the present invention for 10 minutes. Thereafter, light of 595 nm was applied for 15 minutes. Reaction progress was identified and quantified by Western blotting measurements (FIG. 3). […] As a result, it was confirmed that a crosslinked product, which is one of products of a photooxygenation reaction, was detected in a region of more than 250 kDa on the right side of the lane to which the compound was added, whereas no crosslinked body was provided under non-light irradiation conditions, that is, on the left side of each lane in all the compounds, and the reaction proceeded in a light-dependent manner.

[2] = UV-vis spectrum, verification of absorption wavelength; assay type: physicochemical
From the text: It can be said that the longer the wavelength of light used for a living body, the lower the cytotoxicity and the better the tissue permeability.

overexpressed tau = target: T2, overexpressed tau (Homo sapiens, UniProt P10636); assay: LC-MS/MS analysis of methionine oxidation of overexpressed tau after intracellular reaction; assay type: cell-based; settings: monomeric tau, trypsin digestion, FIG. 6
T2 construct: expressed in transfected cells; host or cells: HEK cells (line called Fs17)
T2 sequence (P10636 1-412 isoform P10636-7): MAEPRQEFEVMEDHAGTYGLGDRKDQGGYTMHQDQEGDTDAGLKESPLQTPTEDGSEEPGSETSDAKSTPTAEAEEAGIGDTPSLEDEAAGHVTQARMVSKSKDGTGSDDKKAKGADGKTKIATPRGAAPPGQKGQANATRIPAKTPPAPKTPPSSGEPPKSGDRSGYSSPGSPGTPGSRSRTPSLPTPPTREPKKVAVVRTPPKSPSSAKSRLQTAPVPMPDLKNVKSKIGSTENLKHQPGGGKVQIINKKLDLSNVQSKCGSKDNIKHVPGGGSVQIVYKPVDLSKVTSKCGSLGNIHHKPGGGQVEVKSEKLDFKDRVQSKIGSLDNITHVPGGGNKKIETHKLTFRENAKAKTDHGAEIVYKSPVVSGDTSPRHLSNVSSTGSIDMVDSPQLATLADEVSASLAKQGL
Protocol: LC-MS/MS analysis was performed on the reaction product in order to confirm the production of side chain oxygenates that were difficult to specifically detect as a result of overlapping with unreacted substances in Western blotting. Since side chain oxygenates are mainly produced by oxidation of methionine side chains to sulfoxide, it was focused on 4 methionines contained in overexpressed tau having a total length of 412 amino acids. The intracellular protein after the reaction was separated according to the molecular weight by SDS-page, monomeric tau was cut out by trypsin enzyme digestion, and LC-MS/MS measurement was performed. A ratio of the detection intensity of the methionine oxidant was calculated from the sum of the detection intensities of the methionine reductant and the oxidant obtained from MS1 in the LC-MS/MS spectrum (FIG. 6).

[3] = 10 uM compound in cell medium, 5A6 antibody, FIG. 2

| Compound | photooxygenation activity relative to the compound Q ([1]; 1 μM compound, 595 nm 15 minutes, quantified by Western blotting) | crosslinked product (more than 250 kDa) of the photooxygenation reaction ([1]; 1 μM compound, 10 minutes incubation, light-dependent, FIG. 3) | λmax (nm), maximum absorption wavelength [2] [nm] | crosslinked product (more than 250 kDa) of the photooxygenation reaction [1, 3] | oxygenation level of methionine compared with control (Vehicle) (overexpressed tau) |
| --- | --- | --- | --- | --- | --- |
| OCCN1CCCc2cc(/C=C/C=C/c3nc4ncc(Br)nc4s3)ccc21 [Compound C2OH, 2-(6-((1E,3E)-4-(6-bromothiazolo[4,5-b]pyrazin-2-yl)butadien-1,3-dien-1-yl)-3,4-dihydroquinolin-1(2H)-yl)ethane-1-ol] | twice or more | detected |  |  |  |
| Brc1cnc2nc(/C=C/C=C/c3cc4c5c(c3)CCCN5CCC4)sc2n1 [Compound J, 6-Bromo-2-((1E,3E)-4-(2,3,6,7-tetrahydro-1H,5H-pyrido[3,2,1-ij]quinolin-9-yl)butadien-1,3-dien-1-yl)thiazolo[4,5-b]pyrazine] |  |  | 508 | detected |  |
| COc1cc(N(C)C)cc(OC)c1/C=C/C=C/c1nc2ncc(Br)nc2s1 [Compound OMe, 4-((1E,3E)-4-(6-Bromothiazolo[4,5-b]pyrazin-2-yl)butadien-1,3-dien-1-yl)-3,5-dimethoxy-N,N-dimethylaniline] |  |  | 495 | detected |  |
| CN(C)c1ccc(/C=C/C=C/c2nc3ccc(Br)nc3s2)cc1 [Compound PT, 4-((1E,3E)-4-(5-bromothiazolo[5,4-b]pyridin-2-yl)butadien-1,3-dien-1-yl)-N,N-dimethylaniline] |  |  | 437 |  |  |
| CN(C)c1ccc(/C=C/C=C/c2nc3ncc(Br)nc3s2)cc1 [Compound PzT, 4-((1E,3E)-4-(6-Bromothiazolo[4,5-b]pyrazin-2-yl)butadien-1,3-dien-1-yl)-N,N-dimethylaniline] |  |  | 468 | detected |  |
| CN1CCCc2cc(/C=C/C=C/c3nc4ncc(Br)nc4s3)ccc21 [Compound Q, 6-Bromo-2-((1E,3E)-4-(1-methyl-1,2,3,4-tetrahydroquinolin-6-yl)butadiene-1,3-dien-1-yl)thiazolo[4,5-b]pyrazine] |  |  | 500 | detected | did not change |
